In patent US20130029970A1 (priority 2009, published 2013):
Like-named read-outs stand apart in the source and are kept apart here.

Key:
human CB1 receptors = target: T1, human CB1 receptors (Homo sapiens, UniProt P21554); assay: cAMP assay in HEK-293 cells, hCB1 agonist; assay type: cell-based
T1 construct: (cDNA clone) CNR01L000
How it was run: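 Agonist EC50 taken as concentration giving half inhibition of forskolin-driven cAMP, normalized to forskolin maximum, from sigmoidal curves. Whole HEK-293 cells stably expressing hCB1, in HEPES/BSA-containing HBSS, exposed 30 min at 37° C. to compound with forskolin (90 uM in 3× dilution); cAMP read after lysis.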

[1] = target: T2, recombinant human cannabinoid receptor CB1 (Homo sapiens, UniProt P21554); assay: Cannabinoid receptor radioligand binding assay, [3H]-CP 55,940 displacement, hCB1
T2 construct: (cDNA clone) CNR01L000
How it was run: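 Displacement of 0.5 nM [3H]-CP 55,940 (1 μM unlabeled CP 55,940 for nonspecific) measured by filtration and scintillation counting. Binding ran 90 min at room temperature in pH 7.5 Tris buffer with 0.1% fatty-acid-free BSA, using recombinant hCB1 HEK-293 membranes at 2-10 μg protein.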

[2] = inhibition of forskolin-stimulated cAMP, HEK-293 cells
[3] = inhibition of forskolin-stimulated cAMP, HEK-293 cells, read-out: hCB1 EC50 (cAMP ag)

T2 sequence (P21554 whole entry): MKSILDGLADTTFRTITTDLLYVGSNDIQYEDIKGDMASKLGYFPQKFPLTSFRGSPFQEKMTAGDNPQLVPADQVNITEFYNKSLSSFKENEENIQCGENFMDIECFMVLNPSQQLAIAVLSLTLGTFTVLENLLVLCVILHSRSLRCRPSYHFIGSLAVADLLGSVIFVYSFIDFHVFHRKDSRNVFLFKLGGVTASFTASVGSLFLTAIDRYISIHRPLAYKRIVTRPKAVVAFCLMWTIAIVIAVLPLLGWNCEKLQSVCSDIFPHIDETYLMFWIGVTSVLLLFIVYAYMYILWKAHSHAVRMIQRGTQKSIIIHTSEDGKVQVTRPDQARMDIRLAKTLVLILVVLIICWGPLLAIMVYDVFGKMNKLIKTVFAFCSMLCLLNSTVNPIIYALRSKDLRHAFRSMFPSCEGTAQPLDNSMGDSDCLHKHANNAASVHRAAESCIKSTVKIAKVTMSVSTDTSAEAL
T1 sequence (P21554 whole entry): as above

SMILES | hCB1 EC50 (cAMP ag, nM) (human CB1 receptors; [2]) | IC50 [1] | EC50 (human CB1 receptors; [3]) | EC50 (human CB1 receptors)
C=Cn1c(C)cc2cc(C(=O)c3cccc(Cl)c3Cl)sc21 [Comp 29] | NS (NS means “Not Significant,” which means less than 30% agonist activity when compared to the positive control.) | > 10000 nM |  | 
Cc1cc2cc(C(=O)c3cccc(Cl)c3Cl)sc2n1CCN1CCOCC1 [Compound 1, (2,3-dichlorophenyl)(5-methyl-6-(2-morpholinoethyl)-6H-thieno[2,3-b]pyrrol-2-yl)methanone] |  | 100 to 1000 nM | > 10000 nM | 
CCCn1c(C)cc2cc(C(=O)c3cccc(Cl)c3Cl)sc21 [Compound 3, (2,3-Dichlorophenyl)(5-methyl-6-propyl-6H-thieno[2,3-b]pyrrol-2-yl)methanone] | NS (NS means “Not Significant,” which means less than 30% agonist activity when compared to the positive control.) | 1000 to 10000 nM |  | 
Cc1cc2cc(C(=O)c3ccccc3Cl)sc2n1CCN1CCOCC1 [Compound 5, (2-Chlorophenyl)(5-methyl-6-(2-morpholinoethyl)-61-1-thieno[2,3-b]pyrrol-2-yl)methanone] |  | 100 to 1000 nM | 100 to 1000 nM | 
Cc1cc2cc(C(=O)c3ccc(Cl)cc3)sc2n1CCN1CCOCC1 [Compound 6, (4-Chlorophenyl)(5-methyl-6-(2-morpholinoethyl)-6H-thieno[2,3-b]pyrrol-2-yl)methanone] | NS (NS means “Not Significant,” which means less than 30% agonist activity when compared to the positive control.) | 1000 to 10000 nM |  | 
Cc1cc2cc(C(=O)c3cccc(F)c3F)sc2n1CCN1CCOCC1 [Compound 8, (2,3-Difluorophenyl)(5-methyl-6-(2-morpholinoethyl)-6H-thieno[2,3-b]pyrrol-2-yl)methanone] | NS (NS means “Not Significant,” which means less than 30% agonist activity when compared to the positive control.) | 1000 to 10000 nM |  | 
Cc1cc2cc(C(=O)c3ccc(Cl)c(Cl)c3)sc2n1CCN1CCOCC1 [Compound 9, (3,4-Dichlorophenyl)(5-methyl-6-(2-morpholinoethyl)-6H-thieno[2,3-b]pyrrol-2-yl)methanone] | NS (NS means “Not Significant,” which means less than 30% agonist activity when compared to the positive control.) | 1000 to 10000 nM |  | 
Cc1cc2cc(C(=O)c3cccc4c3OCC4)sc2n1CCN1CCOCC1 [Compound 11, (2,3-Dihydrobenzofuran-7-yl)(5-methyl-6-(2-morpholinoethyl)-6H-thieno[2,3-b]pyrrol-2-yl)methanone] |  | 100 to 1000 nM | 100 to 1000 nM | 
COc1ccccc1C(=O)c1cc2cc(C)n(CCN3CCOCC3)c2s1 [Compound 13, (2-Methoxyphenyl)(5-methyl-6-(2-morpholinoethyl)-6H-thieno[2,3-b]pyrrol-2-yl)methanone] |  | 100 to 1000 nM | 100 to 1000 nM | 
Cc1cc2cc(C(=O)c3cccnc3Cl)sc2n1CCN1CCOCC1 [Compound 17, (2-Chloropyridin-3-yl)(5-methyl-6-(2-morpholinoethyl)-6H-thieno[2,3-b]pyrrol-2-yl)methanone] | NS (NS means “Not Significant,” which means less than 30% agonist activity when compared to the positive control.) | > 10000 nM |  | 
Cc1cc2cc(C(=O)c3cccc(Cl)c3Cl)sc2n1CCC1CCOCC1 [Compound 18, (2,3-Dichlorophenyl)(5-methyl-6-(2-(tetrahydro-2H-pyran-4-yl)ethyl)-6H-thieno[2,3-b]pyrrol-2-yl)methanone] |  | 100 to 1000 nM | 100 to 1000 nM | 
COCCn1c(C)cc2cc(C(=O)c3cccc(Cl)c3Cl)sc21 [Compound 21, (2,3-Dichlorophenyl)(6-(2-methoxyethyl)-5-methyl-6H-thieno[2,3-b]pyrrol-2-yl)methanone] |  | 100 to 1000 nM | 1000 to 10000 nM | 
Cc1cc2cc(C(=O)c3cccc(Cl)c3Cl)sc2n1CCN1CCCCC1 [Compound 23, (2,3-Dichlorophenyl)(5-methyl-6-(2-(piperidin-1-yl)ethyl)-6H-thieno[2,3-b]pyrrol-2-yl)methanone] | NS (NS means “Not Significant,” which means less than 30% agonist activity when compared to the positive control.) | 100 to 1000 nM |  | 
Cc1cc2cc(C(=O)c3cccc(Cl)c3Cl)sc2n1CC1CCCCN1C (stereo not shown) [Compound 24, (2,3-Dichlorophenyl)(5-methyl-6((1-methylpiperidin-2-yl)methyl)-6H-thieno[2,3-b]pyrrol-2-yl)methanone] | NS (NS means “Not Significant,” which means less than 30% agonist activity when compared to the positive control.) | 100 to 1000 nM |  | 
Cc1cc2cc(C(=O)c3cccc(Cl)c3Cl)sc2n1CCN1CCCC1 [Compound 28, (2,3-Dichlorophenyl)(5-methyl-6-(2-(pyrrolidin-1-yl)ethyl)-6H-thieno[2,3-b]pyrrol-2-yl)methanone] | NS (NS means “Not Significant,” which means less than 30% agonist activity when compared to the positive control.) | 100 to 1000 nM |  | 
COc1ccc(C(=O)c2cc3cc(C)n(CCN4CCOCC4)c3s2)cc1 [Compound 36, (4-methoxyphenyl)(5-methyl-6-(2-morpholinoethyl)-6H-thieno[2,3-b]pyrrol-2-yl)methanone] |  | 1000 to 10000 nM |  | 1000 to 10000 nM
Cc1cc2cc(C(=O)c3cccc(Cl)c3Cl)sc2n1S(=O)(=O)N(C)C [Compound 41, 2-(2,3-Dichlorobenzoyl)-N,N,5-trimethyl-6H-thieno[2,3-b]pyrrole-6-sulfonamide] |  | 100 to 1000 nM | 1000 to 10000 nM | 
Cc1cc2cc(C(=O)c3ccccc3N)sc2n1CCN1CCOCC1 [Compound 48, (2-Aminophenyl)(5-methyl-6-(2-morpholinoethyl)-6H-thieno[2,3-b]pyrrol-2-yl)methanone] |  | > 10000 nM | 1000 to 10000 nM | 
COCCn1c(C)cc2cc(C(=O)c3ccc(OC)cc3)sc21 [Compound 49, (6-(2-Methoxyethyl)-5-methyl-6H-thieno[2,3-b]pyrrol-2-yl)(4-methoxyphenyl)methanone] | NS (NS means “Not Significant,” which means less than 30% agonist activity when compared to the positive control.) | > 10000 nM |  | 
COc1ccc(C(=O)c2cc3cc(C)n(CCN4CCOC4=O)c3s2)cc1 [Compound 50, 3-(2-(2-(4-Methoxybenzoyl)-5-methyl-6H-thieno[2,3-b]pyrrol-6-yl)ethyl)oxazolidin-2-one] | NS (NS means “Not Significant,” which means less than 30% agonist activity when compared to the positive control.) | > 10000 nM |  | 
CCOc1ccc(C(=O)c2cc3cc(C)n(CCN4CCOCC4)c3s2)cc1 [Compound 55, (4-Ethoxyphenyl)(5-methyl-6-(2-morpholinoethyl)-6H-thieno[2,3-b]pyrrol-2-yl)methanone] |  | 1000 to 10000 nM | 1000 to 10000 nM | 
Cc1cc2cc(C(=O)c3ccc(N(C)C)cc3)sc2n1CCN1CCOCC1 [Compound 59, (4-(Dimethylamino)phenyl)(5-methyl-6-(2-morpholinoethyl)-6H-thieno[2,3-b]pyrrol-2-yl)methanone] | NS (NS means “Not Significant,” which means less than 30% agonist activity when compared to the positive control.) | > 10000 nM |  | 
Cc1cc2cc(C(=O)c3ccc(F)cc3Cl)sc2n1CCN1CCOCC1 [Compound 64, (2-Chloro-4-fluorophenyl)(5-methyl-6-(2-morpholinoethyl)-6H-thieno[2,3-b]pyrrol-2-yl)methanone] |  | 1000 to 10000 nM | 100 to 1000 nM | 
Cc1cc2cc(C(=O)c3ccc(OC(F)(F)F)cc3)sc2n1CCN1CCOCC1 [Compound 65, (5-Methyl-6-(2-morpholinoethyl)-6H-thieno[2,3-b]pyrrol-2-yl)(4-(trifluoromethoxy)phenyl)methanone] | NS (NS means “Not Significant,” which means less than 30% agonist activity when compared to the positive control.) | 1000 to 10000 nM |  | 
COc1ccc(C(=O)c2cc3cc(C)n(CCN4CCOCC4)c3s2)c(F)c1 [Compound 68, (2-Fluoro-4-methoxyphenyl)(5-methyl-6-(2-morpholinoethyl)-6H-thieno[2,3-b]pyrrol-2-yl)methanone] |  | 1000 to 10000 nM | 1000 to 10000 nM | 
COc1ccc(C(=O)c2cc3cc(C)n(CCNS(C)(=O)=O)c3s2)cc1 [Compound 71, N-(2-(2-(4-Methoxybenzoyl)-5-methyl-6H-thieno[2,3-b]pyrrol-6-yl)ethyl)methanesulfonamide] | NS (NS means “Not Significant,” which means less than 30% agonist activity when compared to the positive control.) | > 10000 nM |  | 
CCOC(=O)CCn1c(C)cc2cc(C(=O)c3ccc(OC)cc3)sc21 [Compound 72, Ethyl 3-(2-(4-methoxybenzoyl)-5-methyl-6H-thieno[2,3-b]pyrrol-6-yl)propanoate] | NS (NS means “Not Significant,” which means less than 30% agonist activity when compared to the positive control.) | > 10000 nM |  | 
Cc1ccc(C(=O)c2cc3cc(C)n(CCN4CCOCC4)c3s2)c(F)c1 [Compound 80, (2-Fluoro-4-methylphenyl)(5-methyl-6-(2-morpholinoethyl)-6H-thieno[2,3-b]pyrrol-2-yl)methanone] | NS (NS means “Not Significant,” which means less than 30% agonist activity when compared to the positive control.) | 1000 to 10000 nM |  | 
COc1ccc(C(=O)c2cc3cc(C)n(CCN4CCCC4)c3s2)cc1 [Compound 83, (4-Methoxyphenyl)(5-methyl-6-(2-(pyrrolidin-1-yl)ethyl)-6H-thieno[2,3-b]pyrrol-2-yl)methanone] |  | 1000 to 10000 nM | 1000 to 10000 nM | 
